US10093656B2, “Fused-ring or tricyclic aryl pyrimidine compound used as kinase inhibitor” (NANJING SANHOME PHARMACEUTICAL CO., LTD, priority 2015, dated 2018)

Legend:
[1] = test system: NCI-H1975 cells EGFR L858R/T790M; experiment: NCI-H1975 cell viability assay (Cell Titer-Glo, 6 days); format: cell-based; conditions: Homo sapiens, 144 h
Method: (§1) RPMI1640, fetal bovine serum, penicillin/streptomycin solution were purchased from Life Technology (Madison, Wis.). Cell Titer-Glo luminescent cell viability reagents were purchased from Promega (Madison, Wis.). A431 cell line and NCI-H1975 cell line were purchased from European Collection of Cell Cultures (ECACC). Plate Reader Instrument: Envision (PerkinElmer).
(§2) 384-Well plates, 300 of A431 cells and NCI-H1975 cells were inoculated per well, a volume of which was 45 μL. And the plates were incubated overnight in a CO2 incubator at 37° C. The test compound was diluted 3-fold to obtain 10 dose concentrations, the final concentrations of which were from 10 μM to 0.508 nM, two wells. The middle plates were filled with 49 μL of medium per well. 1 μL of compound in the gradient dilution compound plates was transferred to the middle plates and mixed well. And then 5 μL liquid in the middle plates was taken to the cell plates. The cells were incubated in a CO2 incubator for 6 days. After 6 days, 25 μL of detection reagents was added. And then the mixture was incubated at room temperature for 10 minutes and the plates were read by Envision.
(§3) The reading is converted to the suppression rate by the following formula (%) (Max-Sample)/(Max-Min)*100%. IC50 Data was measured by Four-parameter curve fitting (Model 205 in XLFIT5, IDBS).

EGFR d746-750/T790M = biological target: T1, EGFR d746-750/T790M (Homo sapiens, UniProt P00533, DEL746-750/T790M); experiment: EGFR d746-750/T790M enzyme HTRF inhibition assay; format: biochemical; conditions: 40 μM ATP
T1 construct: purchased Carna Biosciences (Japan)
Method: (§4) Enzyme: EGFR wild type, EGFR T790M/L858R, EGFR T790M and INSR were purchased from Life technology (Madison, Wis.), EGFR d746-750/T790M was purchased from Carna Biosciences (Japan).
(§5) HTRF Kit was purchased from Cis-Bio International which contained the Eu-labeled TK1 antibody, XL665 and biotin-labeled TK1 polypeptide substrates.
(§6) Detecting instrument: Envision (PerkinElmer).
(§7) The test compound was diluted 3-fold to obtain 10 doses of which the final concentration was from 300 nM to 0.015 nM.
EGFR d746-750/T790M Enzyme Reaction Mixture System:
0.025 nM EGFR d746-750/T790M, 1 μM biotin-TK1 peptide, 40 μM ATP enzyme buffer, a total of which was 10 μL. The reaction plate was white Proxiplate 384-Plus plate (PerkinElmer) and the mixture was reacted at 23° C. for 60 minutes.
(§8) Reaction Detection: 10 μL of detection reagent containing Antibody 2 nM and XL665 62.5 nM was added, and the reagent was incubated at 23° C. for 60 minutes. The plates were read by Envision.
(§9) The reading is converted to the suppression rate (%) by the following formula […]/(Max-Min)*100%. IC50 Data was measured by four-parameter curve fitting (Model 205 in XLFITS, IDBS).

EGFR T790M/L858R = biological target: T2, EGFR T790M/L858R (Homo sapiens, UniProt P00533, L858R/T790M); experiment: EGFR T790M/L858R enzyme HTRF inhibition assay; format: biochemical; conditions: 20 μM ATP, read-out: EGFR L858R/T79M IC50
T2 construct: purchased Life technology (Madison, Wis.)
Method: as §4, §5, §6, §7
EGFR T790M/L858R Enzyme Reaction Mixture System:
0.04 nM EGFR T790M/L858R, 1 μM biotin-TK1 peptide, 20 μM ATP enzyme buffer, a total of which was 10 μL. The reaction plate was white Proxiplate 384-Plus plate (PerkinElmer) and the mixture was reacted at 23° C. for 60 minutes.
as §8, §9

EGFR wild type = biological target: T3, EGFR wild type (Homo sapiens, UniProt P00533); experiment: Wild-type EGFR enzyme HTRF inhibition assay; format: biochemical; conditions: 25 μM ATP, read-out: EGFR WT IC50
T3 construct: purchased Life technology (Madison, Wis.)
Method: as §4, §5, §6, §7
Wild-Type EGFR Enzyme Reaction Mixture System:
0.05 nM Wild-type EGFR, 1 μM biotin-TK1 peptide, 25 μM ATP enzyme buffer, a total of which was 10 μL. The reaction plate was white Proxiplate 384-Plus plate (PerkinElmer) and the mixture was reacted at 23° C. for 60 minutes.
as §8, §9

A431 cells EGFR WT = experiment: A431 cell viability assay (Cell Titer-Glo, 6 days); format: cell-based, human; conditions: for IC50: Homo sapiens, A-431, 144 h, A431 cells, 6 days; for A431:NCI-H1975 (ratio): ratio of cell IC50 A431 to NCI-H1975
Method: as §1, §2, §3

T1 sequence (P00533 with tags, fused parts or gaps DEL746-750/T790M limits assumed): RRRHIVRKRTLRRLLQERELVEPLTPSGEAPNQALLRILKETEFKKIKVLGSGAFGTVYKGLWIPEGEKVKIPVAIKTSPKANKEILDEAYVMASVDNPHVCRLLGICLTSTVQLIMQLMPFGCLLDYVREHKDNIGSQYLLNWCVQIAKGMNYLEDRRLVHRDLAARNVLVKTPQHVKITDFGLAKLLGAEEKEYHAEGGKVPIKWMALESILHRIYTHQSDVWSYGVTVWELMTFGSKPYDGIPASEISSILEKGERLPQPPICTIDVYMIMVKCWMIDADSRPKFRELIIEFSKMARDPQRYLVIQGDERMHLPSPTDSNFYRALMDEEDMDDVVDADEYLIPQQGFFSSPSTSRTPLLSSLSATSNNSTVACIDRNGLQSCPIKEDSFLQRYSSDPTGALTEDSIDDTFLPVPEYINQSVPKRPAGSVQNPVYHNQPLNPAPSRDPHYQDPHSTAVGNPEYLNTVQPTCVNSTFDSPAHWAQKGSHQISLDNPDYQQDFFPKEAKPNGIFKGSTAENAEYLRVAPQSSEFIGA
T2 sequence (P00533 25-1210 T790M/L858R): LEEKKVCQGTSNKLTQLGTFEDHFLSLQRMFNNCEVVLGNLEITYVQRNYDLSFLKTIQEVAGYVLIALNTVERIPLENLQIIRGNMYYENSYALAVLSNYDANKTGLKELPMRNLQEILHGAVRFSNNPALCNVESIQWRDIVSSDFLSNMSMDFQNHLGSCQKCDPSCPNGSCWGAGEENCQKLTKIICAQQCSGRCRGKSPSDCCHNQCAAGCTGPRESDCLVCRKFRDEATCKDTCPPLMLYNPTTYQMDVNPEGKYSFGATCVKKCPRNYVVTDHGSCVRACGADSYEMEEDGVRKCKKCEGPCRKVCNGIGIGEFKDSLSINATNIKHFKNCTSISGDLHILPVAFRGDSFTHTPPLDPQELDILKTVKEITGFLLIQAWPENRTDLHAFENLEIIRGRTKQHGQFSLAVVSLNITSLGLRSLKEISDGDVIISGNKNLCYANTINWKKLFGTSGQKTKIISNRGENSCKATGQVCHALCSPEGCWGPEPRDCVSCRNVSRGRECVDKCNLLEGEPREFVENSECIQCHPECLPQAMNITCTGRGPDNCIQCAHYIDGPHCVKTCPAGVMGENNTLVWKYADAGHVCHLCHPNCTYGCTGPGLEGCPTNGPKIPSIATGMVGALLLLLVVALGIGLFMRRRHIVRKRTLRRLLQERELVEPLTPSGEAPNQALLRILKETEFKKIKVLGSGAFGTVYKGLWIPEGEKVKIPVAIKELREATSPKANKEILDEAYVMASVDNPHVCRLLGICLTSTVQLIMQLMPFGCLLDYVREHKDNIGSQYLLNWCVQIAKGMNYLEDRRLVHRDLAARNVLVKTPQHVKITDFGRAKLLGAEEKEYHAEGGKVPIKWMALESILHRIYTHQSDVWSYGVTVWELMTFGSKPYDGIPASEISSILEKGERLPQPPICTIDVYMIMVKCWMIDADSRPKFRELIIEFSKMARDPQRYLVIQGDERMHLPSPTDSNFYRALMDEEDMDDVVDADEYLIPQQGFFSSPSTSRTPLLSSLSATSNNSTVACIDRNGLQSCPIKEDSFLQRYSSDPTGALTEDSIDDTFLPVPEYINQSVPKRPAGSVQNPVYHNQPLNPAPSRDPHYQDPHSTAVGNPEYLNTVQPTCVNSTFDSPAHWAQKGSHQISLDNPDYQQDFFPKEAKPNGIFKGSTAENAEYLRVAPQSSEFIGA
T3 sequence (P00533 25-1210): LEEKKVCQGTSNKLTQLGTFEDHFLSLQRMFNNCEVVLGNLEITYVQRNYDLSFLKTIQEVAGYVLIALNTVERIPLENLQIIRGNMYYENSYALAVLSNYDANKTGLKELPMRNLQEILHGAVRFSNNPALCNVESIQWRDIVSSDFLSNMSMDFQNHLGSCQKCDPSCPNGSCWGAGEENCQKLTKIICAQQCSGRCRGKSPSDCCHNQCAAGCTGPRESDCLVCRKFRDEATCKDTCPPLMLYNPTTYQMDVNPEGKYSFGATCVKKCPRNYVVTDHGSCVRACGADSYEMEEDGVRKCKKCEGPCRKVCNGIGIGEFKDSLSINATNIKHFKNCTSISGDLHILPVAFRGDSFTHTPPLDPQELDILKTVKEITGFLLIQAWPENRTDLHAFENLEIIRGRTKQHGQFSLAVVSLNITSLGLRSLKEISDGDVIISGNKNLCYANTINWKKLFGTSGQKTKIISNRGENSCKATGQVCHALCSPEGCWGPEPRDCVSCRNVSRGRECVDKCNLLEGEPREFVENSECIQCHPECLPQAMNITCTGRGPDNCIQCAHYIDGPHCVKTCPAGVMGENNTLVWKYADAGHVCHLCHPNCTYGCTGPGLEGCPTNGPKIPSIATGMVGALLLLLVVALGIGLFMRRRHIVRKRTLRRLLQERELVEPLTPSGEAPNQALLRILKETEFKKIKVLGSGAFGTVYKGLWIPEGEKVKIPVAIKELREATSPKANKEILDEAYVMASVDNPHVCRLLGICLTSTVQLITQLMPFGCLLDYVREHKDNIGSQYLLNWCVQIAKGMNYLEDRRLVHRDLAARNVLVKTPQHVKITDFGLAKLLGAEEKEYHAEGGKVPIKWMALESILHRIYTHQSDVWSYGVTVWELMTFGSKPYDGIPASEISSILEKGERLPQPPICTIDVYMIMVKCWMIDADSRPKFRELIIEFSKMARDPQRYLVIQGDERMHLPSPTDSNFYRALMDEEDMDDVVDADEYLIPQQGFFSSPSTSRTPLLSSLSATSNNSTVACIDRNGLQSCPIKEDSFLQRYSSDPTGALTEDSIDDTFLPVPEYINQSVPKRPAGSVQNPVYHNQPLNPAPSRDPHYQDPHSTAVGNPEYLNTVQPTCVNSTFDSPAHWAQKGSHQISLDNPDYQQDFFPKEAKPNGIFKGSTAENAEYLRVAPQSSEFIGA

| IC50 [1] | IC50 (EGFR d746-750/T790M) | IC50 (EGFR T790M/L858R) | IC50 (EGFR wild type) | IC50 (A431 cells EGFR WT) | SMILES | A431:NCI-H1975 (ratio) (A431 cells EGFR WT) |
| --- | --- | --- | --- | --- | --- | --- |
| 175 nM | 1.3 nM | 1.3 nM | 2.7 nM | 438 nM | C=CC(=O)Nc1cc(Nc2ncc(F)c(-c3c4n(c5ccccc35)C(C)(C)COC4)n2)c(OC)cc1N(C)CCN(C)C.CS(=O)(=O)O [Embodiment 36, N-(5-((4-(4,4-Dimethyl-3,4-dihydro-1H-[1,4]oxazino[4,3-a]indol-10-yl)-5-fluoropyrimidin-2-yl)amino)-2-((2-(dimethylamino)ethyl)(methyl)amino)-4-methoxyphenyl)acrylamide methanesulfonate] | 2.5 |
| 288 nM | 0.6 nM | 0.5 nM | 5.3 nM | 1570 nM | C=CC(=O)Nc1cc(Nc2ncc(F)c(-c3c4n(c5ncccc35)CCOC4)n2)c(OC)cc1N(C)CCN(C)C [Embodiment 39, N-(5-((4-(8,9-Dihydro-6H-pyrido[2,3]pyrrolo[4,5-α][1,4]oxazin-5-yl)-5-fluoropyrimidin-2-yl)amino)-2-((2-(dimethylamino)ethyl)(methyl)amino)-4-methoxyphenyl)acrylamide] | 5.5 |
| 11 nM | 0.2 nM | 0.2 nM | 1.5 nM | 517 nM | C=CC(=O)Nc1cc(Nc2nccc(-c3c4n(c5ccccc35)CCOC4)n2)c(OCC)cc1N(C)CCN(C)C [Embodiment 28, N-(5-((4-(3,4-Dihydro-1H-[1,4]oxazino[4,3-a]indol-10-yl)pyrimidin-2-yl)amino)-2-((2-(dimethylamino)ethyl)(methyl)amino)-4-ethoxyphenyl)acrylamide] | 47 |
| 5.4 nM | 0.18 nM | 0.24 nM | 0.65 nM | 545 nM | C=CC(=O)Nc1cc(Nc2nccc(-c3c4n(c5ccc(F)cc35)CCC4)n2)c(OC)cc1N(C)CCN(C)C [Embodiment 13, N-(2-((2-(Dimethylamino)ethyl)(methyl)amino)-5-((4-(7-fluoro-2,3-dihydro-1H-pyrrolo[1,2-a]indol-9-yl)pyrimidin-2-yl)amino)-4-methoxyphenyl) acrylamide] | 101.0 |
| 4330 nM | 3.29 nM | 3.07 nM | 20.3 nM | > 10000 nM | C=CC(=O)Nc1cc(Nc2nccc(-c3c4n(c5ccccc35)CCC4)n2)c(OC)cc1N1CCC(N(C)C)C1 (stereo not drawn) [Embodiment 6, N-(5-((4-(2,3-Dihydro-1H-pyrrolo[1,2-a]indol-9-yl)pyrimidin-2-yl)amino)-2-(3-(dimethylamino)pyrrolidin-1-yl)-4-methoxyphenyl)acrylamide] | >2.1 |
| 4 nM | 0.17 nM | 0.2 nM | 0.66 nM | 164 nM | C=CC(=O)Nc1cc(Nc2nccc(-c3c4n(c5ccccc35)CCOC4)n2)c(OC)cc1N(C)C(C)CN(C)C (stereo not drawn) [Embodiment 20, N-(5-((4-(3,4-Dihydro-1H-[1,4]oxazino[4,3-a]indol-10-yl)pyrimidin-2-yl)amino)-2-((1-(dimethylamino)propan-2-yl)(methyl)amino)-4-methoxyphenyl)acrylamide] | 41.0 |
| 201 nM | 2.6 nM | 1.5 nM | 4.9 nM | 1720 nM | C=CC(=O)Nc1cc(Nc2nccc(-c3cn4c5c(cccc35)OCC(C)(C)C4)n2)c(OC)cc1N(C)CCN(C)C [Embodiment 41, N-(5-((4-(3,3-Dimethyl-3,4-dihydro-2H-[1,4]oxazepino[2,3,4-hi]indol-7-yl)pyrimidin-2-yl)amino)-2-((2-(dimethylamino)ethyl)(methyl)amino)-4-methoxyphenyl)acrylamide] | 8.5 |
